Reference: patent publication US20250171414A1, “COMPOUND SERVING AS MASP-2 INHIBITOR, PHARMACEUTICAL COMPOSITION, PREPARATION METHOD THEREFOR, AND USE THEREOF” (WUHAN CREATERNA SCIENCE AND TECHNOLOGY CO., LTD., priority 2022, published 2025)

Columns and labels:
[1] = In vivo pharmacokinetic study in SD rats; settings: clear
Protocol: After adaptive feeding, the SPF SD rats were each subjected to a single administration of 1 mg/kg or 3 mg/kg of the compound of the present disclosure intragastrically or by tail vein bolus injection. Plasma was collected at specific time points after administration, and the concentration of the compound in plasma was detected by LC-MS/MS (AB Sciex Qtrap 4500).

[2] = tested on: lectin pathway (MBL) in human serum; assay: Inhibition of activity of lectin pathway (MBL) in human serum (WIESLAB Complement System MBL Pathway kit); format: biochemical; settings: 1% human serum
Protocol: The inhibition of the activity of the lectin pathway (MBL) in human serum by compounds was detected using a WIESLAB® Complement System MBL Pathway kit (SVAR, COMPLMP320). Test compounds were each serially diluted in a buffer (Diluent MP), and 1% human serum was incubated with the diluted compound solution for 15 min at room temperature. 100 μL of the mixture was added to a microplate and incubated at 37° C. for 60 min. The liquid in the wells was discarded, and the microplate was washed three times with a washing solution. A Conjugate antibody solution was added at 100 μL/well, and the resulting mixture was incubated for 30 min at 25° C. The liquid in the wells was discarded, and the microplate was washed three times with a washing solution; a substrate solution was added at 100 μL/well, and the resulting mixture was incubated for 30 min at 25° C.; the terminator was added at 50 μL/well, and the absorbance at 405 nm was detected within 30 min by using a microplate reader.

[3] = biological target: human α-thrombin (Homo sapiens (Human), UniProt P00734); assay: Inhibition of thrombin, fluorescent peptide substrate Boc-VPR-AMC; format: biochemical
Protocol: For thrombin assay, a fluorescent peptide substrate (Boc-VPR-AMC (R&D Systems)) was used and reacted in a buffer containing 20 mM Hepes (pH 7.4), 140 mM NaCl, and 0.1% Tween 20 at room temperature. Assay parameters were adjusted to make the assay linearly related to time, enzyme, and substrate concentration.
The assay method for thrombin is as follows. Test compounds were each serially diluted with a buffer, and then 10 μL of compound solution was transferred to an assay plate. A buffer was added to the assay plate at 10 μL/well, and then a thrombin (human α-thrombin (BioPharm Lab.)) solution was added at 15 μL/well. A Boc-VPR-AMC substrate solution was added at 15 μL/well, and the resulting mixture was incubated for 60 min at 25° C. A terminating solution (0.1 M acetic acid) was added at 15 μL/well, and detection was performed within 30 min by using a SpectraMax i3x microplate reader.

SMILES | AUClast ([1]; 1 mg/kg, IV, not fasting) [µg·h/mL] | Cmax ([1]; 1 mg/kg, IV, not fasting) [ng/mL] | T1/2 ([1]; 1 mg/kg, IV, not fasting) [h] | AUClast ([1]; 1 mg/kg, PO, fasting) [µg·h/mL] | Cmax ([1]; 1 mg/kg, PO, fasting) [ng/mL] | T1/2 ([1]; 1 mg/kg, PO, fasting) [h] | AUClast ([1]; 3 mg/kg, PO, fasting) [µg·h/mL] | Cmax ([1]; 3 mg/kg, PO, fasting) [ng/mL] | T1/2 ([1]; 3 mg/kg, PO, fasting) [h] | IC50 [2] [nM] | IC50 [3] [nM]
C[C@H](NC(=O)[C@H]1C[C@H](Cc2ccc(-c3ccccc3)cc2)CN1)C(=O)NC1CCc2nc(N)ccc21 (stereo partly drawn) [Compound L002, (2R,4S)-4-([1,1′-biphenyl]-4-ylmethyl)-N-((2S)-1-((2-amino-6,7-dihydro-5H-cyclopenta[b]pyridin-5-yl)amino)-1-oxopropan-2-yl) pyrrolidine-2-carboxamide] | – | – | – | – | – | – | – | – | – | 2.48 | > 50000
Nc1ccc2c(n1)CCC2NC(=O)[C@@H]1CCN1C(=O)[C@H]1C[C@H](Cc2ccc(-c3ccccc3)cc2)CN1 (stereo partly drawn) [Compound L027, (2S)-1-(2R,4S)-4-([1,1′-biphenyl]-4-(4-methyl)pyrrolidine-2-carbonyl)-N-(2-amino-6,7-dihydro-5H-cyclopenta[b]pyridin-5-yl) azetidine-2-carboxamide] | – | – | – | – | – | – | – | – | – | 1.43 | 11900
Nc1ccc2c(n1)CCC2NC(=O)[C@@H]1CCCN1C(=O)[C@H]1C[C@H](Cc2ccc(-c3ccccc3)cc2)CN1 (stereo partly drawn) [Compound L028, (2S)-1-(2R,4S)-4-([1,1′-biphenyl]-4-(4-ylmethyl)pyrrolidine-2-carbonyl)-N-(2-amino-6,7-dihydro-5H-cyclopenta[b]pyridin-5-yl) pyrrolidine-2-carboxamide] | – | – | – | – | – | – | – | – | – | 4.09 | 16600
Nc1ccc2c(n1)CCC2NC(=O)[C@@H]1CCN1C(=O)[C@H]1C[C@H](Cc2ccc(F)cc2)CN1 (stereo partly drawn) [Compound L030, (2S)—N-(2-amino-6,7-dihydro-5H-cyclopenta[b]pyridin-5-yl)-1-((2R,4S)-4-(4-fluorobenzyl)pyrrolidine-2-carbonyl) azetidine-2-carboxamide] | – | – | – | – | – | – | – | – | – | 1.85 | 10300

Now from value to molecule, other results behind:

AUClast ([1]; 1 mg/kg, IV, not fasting) [µg·h/mL] | Cmax ([1]; 1 mg/kg, IV, not fasting) [ng/mL] | T1/2 ([1]; 1 mg/kg, IV, not fasting) [h] | AUClast ([1]; 1 mg/kg, PO, fasting) [µg·h/mL] | Cmax ([1]; 1 mg/kg, PO, fasting) [ng/mL] | T1/2 ([1]; 1 mg/kg, PO, fasting) [h] | AUClast ([1]; 3 mg/kg, PO, fasting) [µg·h/mL] | Cmax ([1]; 3 mg/kg, PO, fasting) [ng/mL] | T1/2 ([1]; 3 mg/kg, PO, fasting) [h] | SMILES | IC50 [2] [nM] | IC50 [3] [nM]
54.837 ± 1.386 | 7297 ± 154 | 31.1 ± 1.27 | 9.822 ± 0.108 | 1483 ± 41.0 | 10.1 | – | – | – | C[C@H](NC(=O)[C@H]1C[C@H](Cc2ccc(F)cc2)CN1)C(=O)NC1CCc2nc(N)ccc21 (stereo partly drawn) [Compound L001, (2R,4S)—N-((2S)-1-((2-amino-6,7-dihydro-5H-cyclopenta[b]pyridin-5-yl)amino)-1-oxopropan-2-yl)-4-(4-fluorobenzyl) pyrrolidine-2-carboxamide] | 2.67 | > 50000
299.766 ± 11.465 | 23267 ± 1538 | 42.4 ± 3.40 | – | – | – | 188.265 ± 20.044 | 6070 ± 914 | 43.9 ± 8.44 | C[C@H](NC(=O)[C@H]1C[C@H](Cc2ccc(F)cc2)CN1)C(=O)N[C@@H]1CCc2nc(N)ccc21 [Compound L001-IS-01, (2R,4S)—N—((S)-1-(((R)-2-amino-6,7-dihydro-5H-cyclopenta[b]pyridin-5-yl)amino)-1-oxopropan-2-yl)-4-(4-fluorobenzyl) pyrrolidine-2-carboxamide] | 0.52 | 27400
